From patent US6872713B1, “Antiprotozoal saponins” (Janssen Pharmaceutica N.V., priority 1999, dated 2005)
In brackets after ≈: the same amount, converted by molar mass.

Tests used:
L. major [1] = assay: In vivo skin lesion model, L. major (prophylactic and curative); design: species or system mice and hamsters; conditions: L. major proph., 10 mg/kg
Source text: (§1) Methods for in vivo maintenance of Leishmania organisms and animals models are well documented in the international literature. Balb-C mice and golden hamsters are the preferred laboratory animal species for primary isolation, maintenance and use in artificial infection models. Testing protocols are flexible and may be adapted according to the specific objectives and characteristics of the test compounds. Briefly, the following in vivo methodologies have been used:
(§2) For cutaneous and mucocutaneous Leishmania species:Balb-C mice or young hamsters were infected intradermally or subcutaneously with about 10^6 to 10^7 amastigotes derived from the target organs (generally skin lesion) of an infected donor animal or from an in vitro culture of parasite forms. The animals were treated with the test compound at different dose levels (mg/kg in 100% DMSO or any other acceptable vehicle), using different routes of administration and treatment schedules. Initiation of treatment was either before infection (prophylactically) or at different times after infection (curatively). In the prophylactic study design, the first administration of the test drug is given immediately before or together with the artificial infection with the Leishmania species. In the curative study design, the first administration of the test drug is given several weeks after the artificial infection with the Leishmania species (early curative=when the first dermal lesions appear; late curative=when dermal lesions are well established or become chronic). Drug activity was evaluated either by determination of the severity of the lesion in the relevant target tissue/organ (primary parameter) or of the parasite burdens in the relevant target tissue/organ (secondary parameter), compared to untreated control animals. The lesion size was assessed quantitatively using the method of J. El-On. and A. D. Hamburger [Trans. Roy. Soc. Trop. Med. Hyg., 81, 734-737 (1987)]. The percentage reduction serves as an indication for antileishmanial activity and provides significant leads for clinically useful agents. The lowest active dose (LAD) is defined as the lowest dose which prevents lesions to develop, stops further evolution of the lesions or induces a clinical cure of the lesions in the primary target organ or tissue.

L. infantum = assay: In vitro antileishmanial activity in macrophages, L. infantum; type: cell-based; conditions: Leishmania infantum, Macrophage; L. infantum (visceral), primary mouse macrophages
Procedure: (§3) Methods for the in vitro growth of Leishmania organisms and screening methodology are well documented in the international literature. Testing protocols are flexible and may be adapted according to the specific objectives and the characteristics of the test compounds. Briefly, the following in vitro methodology has been used: Primary peritoneal macrophages derived from laboratory rodents or macrophage cell lines were seeded in multiwell tissue culture vessels and allowed to attach for about 24 hours. Amastigotes of the Leishmania species (obtained from target tissues of an infected donor animal or from amastigote-infected tissue cultures) or promastigotes of the Leishmania species were added at an appropriate infection ratio together with varying serially diluted concentrations of the drug or test compound. […] Treatment of uninfected control cultures was also included in order to determine a selectivity index. Reference drug treated cultures were included as well so as to determine the relative potency of the test drug. Drug activity was determined in stained preparations as the percentage reduction of the total parasite load or the number of infected macrophages compared to the untreated control cultures.

L. donovani [2] = assay: In vitro antileishmanial activity in primary mouse macrophages, L. donovani; type: cell-based; conditions: Leishmania donovani, Macrophage, L. donovani (visceral)
Procedure: as §3

L. major [3] = assay: Lowest active dose regimen in Balb-C mice, L. major; type: in vivo; conditions: L. major prophylactic; no regimen given
Source text: as §1
(§4) For cutaneous and mucocutaneous Leishmania species:Balb-C mice or young hamsters were infected intradermally or subcutaneously with about 10^6 to 10^7 amastigotes derived from the target organs (generally skin lesion) of an infected donor animal or from an in vitro culture of parasite forms. The animals were treated with the test compound at different dose levels (mg/kg in 100% DMSO or any other acceptable vehicle), using different routes of administration and treatment schedules. […] Drug activity was evaluated either by determination of the severity of the lesion in the relevant target tissue/organ (primary parameter) or of the parasite burdens in the relevant target tissue/organ (secondary parameter), compared to untreated control animals. The lesion size was assessed quantitatively using the method of J. El-On. and A. D. Hamburger [Trans. […]

L. donovani [4] = assay: Lowest active dose regimen in Balb-C mice, L. donovani; type: in vivo; conditions: no regimen given
Source text: as §1
For visceral Leishmania species: Balb-C mice or young hamsters were intravenously infected with about 10^6 to 10^7 amastigotes derived from the target organs (generally spleen) of an infected donor animal or from an in vitro culture of parasite forms. The animals were treated with the test compound at different dose levels (dose range: 0.1 to 80 mg/kg in 100% DMSO or any other acceptable vehicle), using different routes of administration and treatment schedules. Initiation of treatment was either at different times after infection (curatively), concomitant with infection (prophylactically) or before infection (residual activity). In the prophylactic study design, the first administration of the test drug is given immediately before or together with the artificial infection with the Leishmania species. In the curative study design, the first administration of the test drug is given several weeks after the artificial infection with the Leishmania species (early curative=when the first clinical signs appear; late curative=when the clinical symptoms are well established or become chronic). Drug activity was evaluated by determination of the total parasite burdens in the liver or any other relevant target tissue/organ, compared to the tissue/organ burdens in untreated control animals. The mean number of amastigotes is enumerated quantitatively or semi-quantitatively on stained impression smears or slides. The percentage reduction serves as an indication for antileishmanial activity and provides significant leads for clinically useful agents. […]

L mexicana = assay: Lowest active dose regimen in Balb-C mice, L mexicana; type: in vivo; conditions: L mexicana prophylactic; no regimen given
Source text: as §1, §4

L. mexicana [5] = assay: In vitro antileishmanial activity in primary mouse macrophages, L. mexicana; type: cell-based; conditions: Leishmania mexicana, Macrophage, L. mexicana (cutaneous)
Procedure: as §3

L. panamensis [6] = assay: In vivo skin lesion model, L. panamensis (prophylactic and curative); design: species or system mice and hamsters; conditions: L. panamensis proph., 10 mg/kg
Source text: as §1, §2

L. major [7] = assay: In vitro antileishmanial activity in primary mouse macrophages, L. major; type: cell-based; conditions: Leishmania major, Macrophage, L. major (cutaneous)
Procedure: as §3

L. panamensis [8] = assay: Lowest active dose regimen in Balb-C mice, L. panamensis; type: in vivo; conditions: L. panamensis prophylactic; no regimen given
Source text: as §1, §4

L. mexicana [9] = assay: In vivo skin lesion model, L. mexicana (prophylactic and curative); design: species or system mice and hamsters; conditions: L. mexicana proph., 10 mg/kg
Source text: as §1, §2

## C[C@@H]1[C@H](O)[C@@H](C)/C=C/C=C/C=C/C=C/C=C/C=C/C=C/[C@H](O[C@@H]2O[C@H](C)[C@@H](O)[C@H](N)[C@@H]2O)C[C@@H]2O[C@](O)(C[C@@H](O)C[C@@H](O)[C@H](O)CC[C@@H](O)C[C@@H](O)CC(=O)O[C@H]1C)C[C@H](O)[C@H]2C(=O)O [Ampho-B, amphothericin-B]
L. major [1]; week 0 post infection
  skin lesion size: 0 mm^2
L. major [1]; week 1 post infection
  skin lesion size: 0 mm^2
L. major [1]; week 2 post infection
  skin lesion size: 1 mm^2
L. major [1]; week 3 post infection
  skin lesion size: 1 mm^2
L. major [1]; week 4 post infection
  skin lesion size: 12 mm^2
L. major [1]; week 5 post infection
  skin lesion size: 31 mm^2
L. major [1]; week 6 post infection
  skin lesion size: 41 mm^2
L. major [1]; week 7 post infection
  skin lesion size: 57 mm^2
L. major [1]; week 8 post infection
  skin lesion size: 95 mm^2
L. infantum
  EC50: 0.1 µg/mL (≈ 0.108 µM)
L. donovani [2]
  EC50: 0.1 µg/mL (≈ 0.108 µM)
L. major [3]
  Lowest active dose (LAD) regimen: not effective
L. donovani [4]; L. donovani curative early
  Lowest active dose (LAD) regimen: not effective
L. donovani [4]; L. donovani prophylactic
  Lowest active dose (LAD) regimen: not effective
L. donovani [4]; L. donovani
  residual activity: not effective
L mexicana
  Lowest active dose (LAD) regimen: not effective
L. mexicana [5]
  EC50: 0.1 µg/mL (≈ 0.108 µM)
L. panamensis [6]; week 0 post infection
  skin lesion size: 0 mm^2
L. panamensis [6]; week 1 post infection
  skin lesion size: 0 mm^2
L. panamensis [6]; week 2 post infection
  skin lesion size: 0 mm^2
L. panamensis [6]; week 3 post infection
  skin lesion size: 0 mm^2
L. panamensis [6]; week 4 post infection
  skin lesion size: 1 mm^2
L. panamensis [6]; week 5 post infection
  skin lesion size: 9 mm^2
L. panamensis [6]; week 6 post infection
  skin lesion size: 15 mm^2
L. panamensis [6]; week 7 post infection
  skin lesion size: 30 mm^2
L. panamensis [6]; week 8 post infection
  skin lesion size: 30 mm^2
L. panamensis [6]; week 9 post infection
  skin lesion size: 42 mm^2
L. panamensis [6]; week 10 post infection
  skin lesion size: 42 mm^2
L. panamensis [6]; week 11 post infection
  skin lesion size: 43 mm^2
L. panamensis [6]; week 12 post infection
  skin lesion size: 39 mm^2
L. major [7]
  EC50: 0.2 µg/mL (≈ 0.216 µM)
L. panamensis [8]
  Lowest active dose (LAD) regimen: not effective
L. mexicana [9]; week 0 post infection
  skin lesion size: 0 mm^2
L. mexicana [9]; week 1 post infection
  skin lesion size: 0 mm^2
L. mexicana [9]; week 2 post infection
  skin lesion size: 0 mm^2
L. mexicana [9]; week 3 post infection
  skin lesion size: 0 mm^2
L. mexicana [9]; week 4 post infection
  skin lesion size: 0 mm^2
L. mexicana [9]; week 5 post infection
  skin lesion size: 1 mm^2
L. mexicana [9]; week 6 post infection
  skin lesion size: 2 mm^2
L. mexicana [9]; week 7 post infection
  skin lesion size: 7 mm^2
L. mexicana [9]; week 8 post infection
  skin lesion size: 13 mm^2
L. mexicana [9]; week 9 post infection
  skin lesion size: 34 mm^2
L. mexicana [9]; week 10 post infection
  skin lesion size: 85 mm^2
L. mexicana [9]; week 11 post infection
  skin lesion size: 101 mm^2
L. mexicana [9]; week 12 post infection
  skin lesion size: 112 mm^2

## CCC(C)n1ncn(-c2ccc(N3CCN(c4ccc(OCC5COC(Cn6cncn6)(c6ccc(Cl)cc6Cl)O5)cc4)CC3)cc2)c1=O (centres unmarked) [itraconazole]
L. infantum
  EC50: > 12.5 µg/mL
L. donovani [2]
  EC50: > 12.5 µg/mL
